Measured values reported in patent US20230220047A1, “PEPTIDES FOR TREATMENT OF SEPSIS AND CANCER” (NORWEGIAN UNIVERSITY OF SCIENCE AND TECHNOLOGY (NTNU), priority 2020, published 2023).
Entries after “also recorded” stand apart in the source; their conditions may differ.

Columns and labels:
[1] = system: IH-1 multiple myeloma cells; assay: CellTiter-Glo cell viability assay, IH-1; type: cell-based, human; conditions: IH-1, 10 μM, 48 h
Protocol: Minor effects on the proliferation of the IH-1 and RPMI 8226 cell lines are seen. Cells were seeded at the level shown (left-hand bar of each set) then incubated in medium containing water, 10 μM penetratin or 10 μM P7-A4-Pen for 48 hr (except for INA-6 cells, which were incubated with 12.5 μM penetratin or 12.5 μM P7-A4-Pen). The number of viable cells was detected based on quantitation of ATP by luminescent signal in correlation to a standard curve prepared for each cell line. Results are based on 3-5 biological replicates for each condition, error bars show standard deviation of mean.
Multiple myeloma cells JJN-3 (DSMZ (Germany) no. ACC 541), ANBL-6 (Cellosaurus accession number CVCL_5425, obtained from Dr Diane Jelinek, Mayo Clinic, Rochester, Minn.), INA-6 (Cellosaurus accession number CVCL_5209, obtained from Dr M. Gramatzki, University of Erlangen-Nurnberg, Erlangen, Germany), RPMI-8226 (ATCC CCL-155), and IH-1 (Cellosaurus accession number CVCL_WZ44, established from the pleural effusion of a myeloma patient by Myeloma research group, IKOM, NTNU, Trondheim, Norway) were grown in RPMI-1640 (Sigma-Aldrich Norway, Oslo, Norway) supplemented with 100 nM penicillin/streptomycin and 10% FCS, and for ANBL-6, IH-1 and INA-6 cells 2 ng/ml recombinant IL-6 (Gibco, Thermo Fisher Scientific, Waltham, Mass., USA). […]

TLR4 = assay: Cytokine expression in primary human monocytes stimulated by LPS or E. coli particles; type: cell-based
Protocol: Use of human monocytes from blood donors was approved by the Regional Committees for Medical and Health Research Ethics at the Norwegian University of Science and Technology (NTNU). Human monocytes were isolated from buffy coats by adherence as previously described (Husebye et al., Immunity 33: 583-596, 2010). Briefly, freshly prepared buffy coat (The Blood Bank, St. Olav's Hospital, Trondheim, Norway) was diluted in 100 ml PBS, and PBMCs isolated by density gradient centrifugation using Lymphoprep (Axis-Shield) according to the manufacturer's instructions. […] Cells were counted using a Z2 Coulter Particle Count and Size Analyzer (Beckman Coulter) on program B, re-suspended in RPM11640 (Sigma) supplemented with 5% pooled human serum at a concentration of 8×10^6 per ml and seeded into 6-well (1 ml per well) or 24-well (0.5 ml per well) cell culture dishes. […] Total RNA was isolated from the cells using Qiazol reagent #79306 from QIAGEN, and chloroform extraction followed by purification on RNeasy Mini columns with DNAse digestion (Qiagen). cDNA was prepared using the Maxima First Strand cDNA Synthesis Kit for quantitative real-time polymerase chain reaction (RT-qPCR) (Thermo Fisher Scientific) according to the manufacturer's protocol. qPCR was performed using the PerfeCTa qPCR FastMix (Quanta Biosciences) in replicates and cycled in a StepOnePlusTM Real-Time PCR cycler. […]

Substance | cell proliferation [1] | IFNβ, TNF, IL-1β and IL-6 expression in response to TLR4 stimulation (TLR4; 15 μM, 30 min pre-treatment, LPS 100 ng/ml, all tested donors) | reducing cytokine secretion by monocytes stimulated by E. coli particles (TLR4; P7-Pen 15 μM vs P7-Arg11 10 μM)
Ac-ITVAASVTLTGRQIKIWFQNRRMKWKK-NH2 [Peptide P7-A4-Pen] | Minor effects; also recorded: inhibited cell proliferation | – | –
Ac-ITVYASVTLTGRQIKIWFQNRRMKWKK-NH2 [Peptide P7-Pen] | – | significantly decreased | more effective than P7-Arg11
